Experiments:
[1] = target: T1, glucocorticoid receptor (GR) (Homo sapiens, UniProt P04150); assay: Binding to the glucocorticoid receptor (GR), recombinantly produced receptor, Sf9 cytosol preparations; conditions: recombinant GR, cytosol of baculovirus-infected Sf9 cells, reference [3H]-dexamethasone
T1 construct: made in house; host or cells: Sf9 insect cells infected with recombinant baculovirus; cytosol preparation
T1 sequence (P04150 1-777): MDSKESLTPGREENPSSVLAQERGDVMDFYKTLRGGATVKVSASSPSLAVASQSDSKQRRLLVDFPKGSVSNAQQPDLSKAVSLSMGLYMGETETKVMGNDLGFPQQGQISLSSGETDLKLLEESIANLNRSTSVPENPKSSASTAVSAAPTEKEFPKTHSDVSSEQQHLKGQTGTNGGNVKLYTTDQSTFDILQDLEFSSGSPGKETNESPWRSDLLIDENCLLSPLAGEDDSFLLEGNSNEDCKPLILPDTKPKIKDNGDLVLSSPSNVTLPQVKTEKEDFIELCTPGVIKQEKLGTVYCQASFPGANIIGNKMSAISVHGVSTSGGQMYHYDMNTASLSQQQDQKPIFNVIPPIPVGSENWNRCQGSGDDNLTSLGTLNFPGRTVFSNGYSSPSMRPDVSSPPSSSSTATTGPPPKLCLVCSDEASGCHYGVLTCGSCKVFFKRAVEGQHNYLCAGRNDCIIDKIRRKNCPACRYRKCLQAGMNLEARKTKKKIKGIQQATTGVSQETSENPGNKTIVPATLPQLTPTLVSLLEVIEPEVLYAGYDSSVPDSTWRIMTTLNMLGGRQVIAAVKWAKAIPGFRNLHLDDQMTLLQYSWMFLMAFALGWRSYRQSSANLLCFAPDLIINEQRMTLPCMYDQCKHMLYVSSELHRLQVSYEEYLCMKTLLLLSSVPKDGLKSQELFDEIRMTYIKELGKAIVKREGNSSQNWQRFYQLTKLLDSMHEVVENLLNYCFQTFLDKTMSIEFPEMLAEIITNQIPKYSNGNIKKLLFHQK
Source text: The binding of the substances to the glucocorticoid receptor (GR) and other steroid hormone receptors (mineral corticoid receptor (MR), progesterone receptor (PR) and androgen receptor (AR)) is examined with the aid of recombinantly produced receptors. Cytosol preparations of Sf9 cells, which had been infected with recombinant baculoviruses, which code for the GR, are used for the binding studies. In comparison to reference substance [^3H]-dexamethasone, the substances show a high to very high affinity to GR.

[2] = tested on: secretion of cytokine IL-8 in human monocyte cell line THP-1 triggered by lipopolysaccharide (LPS); assay: Inhibition of LPS-triggered IL-8 secretion in THP-1 cells (ELISA); assay type: cell-based; conditions: IL-8 in supernatant by ELISA, read-out: IC50(IL8)
Experimental: The concentration of the cytokines was determined in the supernatant by means of commercially available ELISA kits.

- IC50 [1]: 64 nM
- IC50 [2]: 25 nM
Compound: COc1cccc(C(Nc2cccc3nc(C)ccc23)C(O)(CCl)C(F)(F)F)c1 (centres unmarked) [Example 3]
